Assay results from the supplement of paper PMC11061612.

Experiments:
Assay in all cases: combination Emax (second highest fraction inhibited in the dose matrix, 72 h); higher = more inhibition; extreme values may be limits of the assay
[1] = system: SNU-16 (Gastric Carcinoma)
In short: (§1)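 Bliss excess equals the observed combination effect minus the expected value EA + EB − EA·EB, where EA and EB are the effects of each agent alone. Combination Emax is the second-highest inhibition within the matrix. Inhibition was scaled from CellTiter-Glo 2.0 luminescence, with 0 set by vehicle wells and 1 by blank wells, after 72 hours of two-drug dosing of cells plated in 1536-well plates.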

[2] = system: HeLa (Cervical Carcinoma)
In short: as §1

[3] = system: HH (T-Cell Non-Hodgkin's Lymphoma)
In short: as §1

[4] = system: HuH-7 (Hepatocellular Carcinoma)
In short: as §1

[5] = system: FTC-133 (Thyroid Gland Carcinoma)
In short: as §1

[6] = system: CAL-33 (Oral Cavity Carcinoma)
In short: as §1

[7] = system: Detroit562 (Head and Neck Carcinoma)
In short: as §1

[8] = system: MPP-89 (Mesothelioma)
In short: as §1

[9] = system: NCI-H1568 (Lung Adenocarcinoma)
In short: as §1

[10] = system: NCI-H2722 (Mesothelioma)
In short: as §1

[11] = system: MHH-CALL-2 (B-Lymphoblastic Leukemia)
In short: as §1

[12] = system: OV-56 (Ovarian Carcinoma)
In short: as §1

[13] = system: BE2-M17 (Neuroblastoma)
In short: as §1

[14] = system: NCI-H524 (Small Cell Lung Carcinoma)
In short: as §1

[15] = system: SW1573 (Lung Adenocarcinoma)
In short: as §1

[16] = system: SNU-449 (Hepatocellular Carcinoma)
In short: as §1

[17] = system: LNZTA3WT4 (Low Grade Glioma)
In short: as §1

[18] = system: BPH-1 (Non-Cancerous)
In short: as §1

[19] = system: OVCAR-5 (Ovarian Carcinoma)
In short: as §1

[20] = system: LOXIMVI (Melanoma)
In short: as §1

SMILES	combination Emax [1]	combination Emax [2]	combination Emax [3]	combination Emax [4]	combination Emax [5]	combination Emax [6]	combination Emax [7]	combination Emax [8]	combination Emax [9]	combination Emax [10]	combination Emax [11]	combination Emax [12]	combination Emax [13]	combination Emax [14]	combination Emax [15]	combination Emax [16]	combination Emax [17]	combination Emax [18]	combination Emax [19]	combination Emax [20]
COc1nnc2ccc(N3CCC(c4ccc(OCCN5CCN(C)C(=O)[C@H]5C)cc4)CC3)nn12 [AZD5153] + CC1(C)CCC(CN2CCN(c3ccc(C(=O)NS(=O)(=O)c4ccc(NCC5CCOCC5)c([N+](=O)[O-])c4)c(Oc4cnc5[nH]ccc5c4)c3)CC2)=C(c2ccc(Cl)cc2)C1 [Venetoclax] (first compound max 1 µM, 7x7, partner max 1 µM)	0.731	0.433	0.406	0.442	0.578	0.402	0.8	0.497	0.251	0.471	0.429	0.24	0.621	0.694	0.43	0.252	0.344	0.745	0.514	0.882
COc1nnc2ccc(N3CCC(c4ccc(OCCN5CCN(C)C(=O)[C@H]5C)cc4)CC3)nn12 [AZD5153] + CCN(CCO)CCCOc1ccc2c(Nc3cc(CC(=O)Nc4cccc(F)c4)[nH]n3)ncnc2c1 [AZD2811] (first compound max 1 µM, 7x7, partner max 1 µM)	0.868	0.433	0.485	0.463	0.678	0.609	0.892	0.467	0.283	0.521	0.5	0.283	0.644	0.97	0.504	0.298	0.457	0.844	0.545	0.861
COc1nnc2ccc(N3CCC(c4ccc(OCCN5CCN(C)C(=O)[C@H]5C)cc4)CC3)nn12 [AZD5153] + C[C@@H]1COCCN1C2=NC(=NC(=C2)C3(CC3)[S@](=N)(=O)C)C4=C5C=CNC5=NC=C4 [AZD6738] (first compound max 1 µM, 7x7, partner max 10 µM)	0.98	0.589	0.491	0.724	0.782	0.839	0.919	0.604	0.476	0.589	0.932	0.793	0.92	0.915	0.557	0.166	0.809	0.831	0.744	0.97
COc1nnc2ccc(N3CCC(c4ccc(OCCN5CCN(C)C(=O)[C@H]5C)cc4)CC3)nn12 [AZD5153] + Cc1c2c(nn1C)CSCc1cc(n(C)n1)CSc1cc(c3ccccc3c1)OCCCc1c(C(=O)O)n(C)c3c-2c(Cl)ccc13 [AZD5991] (first compound max 1 µM, 7x7, partner max 1 µM)	1	0.799	1	0.755	0.615	0.628	0.877	0.581	0.393	0.508	1	0.351	0.847	0.934	0.422	0.292	0.441	0.86	0.496	0.975
COc1nnc2ccc(N3CCC(c4ccc(OCCN5CCN(C)C(=O)[C@H]5C)cc4)CC3)nn12 [AZD5153] + Cn1cnc2c(F)c(Nc3ccc(Br)cc3Cl)c(C(=O)NOCCO)cc21 [Selumetinib] (first compound max 1 µM, 7x7, partner max 10 µM)	0.902	0.411	0.42	0.885	0.592	0.708	0.792	0.554	0.413	0.516	0.432	0.336	0.825	0.575	0.577	0.243	0.383	0.87	0.685	0.877
Cc1c2c(nn1C)CSCc1cc(n(C)n1)CSc1cc(c3ccccc3c1)OCCCc1c(C(=O)O)n(C)c3c-2c(Cl)ccc13 [AZD5991] + C1CN(CCC1(C(=O)N[C@@H](CCO)C2=CC=C(C=C2)Cl)N)C3=NC=NC4=C3C=CN4 [Capivasertib] (first compound max 1 µM, 7x7, partner max 3 µM)	0.996	0.671	0.928	0.208	0.663	0.347	0.325	0.268	0.191	0.173	1	0.169	0.966	0.452	0.231	0.182	0.237	0.469	0.215	0.313
Cc1c2c(nn1C)CSCc1cc(n(C)n1)CSc1cc(c3ccccc3c1)OCCCc1c(C(=O)O)n(C)c3c-2c(Cl)ccc13 [AZD5991] + C=CCn1c(=O)c2cnc(Nc3ccc(N4CCN(C)CC4)cc3)nc2n1-c1cccc(C(C)(C)O)n1 [AZD1775] (first compound max 1 µM, partner max 1 µM)	1	0.841	0.77	0.448	0.956	0.802	0.749	0.477	0.434	0.397	1	0.244	0.986	0.816	0.44	0.302	0.823	0.525	0.343	0.624
Cc1c2c(nn1C)CSCc1cc(n(C)n1)CSc1cc(c3ccccc3c1)OCCCc1c(C(=O)O)n(C)c3c-2c(Cl)ccc13 [AZD5991] + CCN(CCO)CCCOc1ccc2c(Nc3cc(CC(=O)Nc4cccc(F)c4)[nH]n3)ncnc2c1 [AZD2811] (first compound max 1 µM, 7x7, partner max 1 µM)	0.996	0.763	0.728	0.219	0.761	0.911	0.951	0.248	0.306	0.29	0.987	0.2	0.905	1	0.321	0.282	0.256	0.873	0.205	0.339
Cc1c2c(nn1C)CSCc1cc(n(C)n1)CSc1cc(c3ccccc3c1)OCCCc1c(C(=O)O)n(C)c3c-2c(Cl)ccc13 [AZD5991] + CN(C)CCCOc1ccc(-c2ccc3ncc4c(c3c2)n(C2CCOCC2)c(=O)n4C)cn1 [AZD0156] (first compound max 1 µM, 7x7, partner max 1 µM)	0.974	0.46	0.756	0.252	0.719	0.185	0.269	0.182	0.401	0.243	0.985	0.181	0.875	0.452	0.214	0.25	0.227	0.733	0.251	0.363
Cc1c2c(nn1C)CSCc1cc(n(C)n1)CSc1cc(c3ccccc3c1)OCCCc1c(C(=O)O)n(C)c3c-2c(Cl)ccc13 [AZD5991] + C[C@@H]1COCCN1C2=NC(=NC(=C2)C3(CC3)[S@](=N)(=O)C)C4=C5C=CNC5=NC=C4 [AZD6738] (first compound max 1 µM, 7x7, partner max 10 µM)	1	0.856	0.759	0.279	0.923	0.901	0.902	0.596	0.502	0.401	1	0.558	0.991	0.854	0.368	0.198	0.761	0.521	0.645	0.742
Cc1c2c(nn1C)CSCc1cc(n(C)n1)CSc1cc(c3ccccc3c1)OCCCc1c(C(=O)O)n(C)c3c-2c(Cl)ccc13 [AZD5991] + C[C@@H](Nc1cc(F)cc(F)c1)c1cc(C(=O)N(C)C)cc2c(=O)cc(N3CCOCC3)oc12 [AZD8186] (first compound max 1 µM, 7x7, partner max 3 µM)	0.986	0.614	0.87	0.208	0.667	0.28	0.305	0.22	0.225	0.197	0.989	0.212	0.92	0.436	0.288	0.216	0.232	0.461	0.267	0.268
Cc1c2c(nn1C)CSCc1cc(n(C)n1)CSc1cc(c3ccccc3c1)OCCCc1c(C(=O)O)n(C)c3c-2c(Cl)ccc13 [AZD5991] + Cc1cc2ncnn2cc1Nc1ncc2c(n1)n(C1CCOCC1)c(=O)n2C [AZD7648] (first compound max 1 µM, 7x7, partner max 10 µM)	0.999	0.485	0.71	0.185	0.649	0.302	0.422	0.343	0.232	0.234	1	0.189	0.9	0.501	0.19	0.238	0.318	0.409	0.256	0.467
Cc1c2c(nn1C)CSCc1cc(n(C)n1)CSc1cc(c3ccccc3c1)OCCCc1c(C(=O)O)n(C)c3c-2c(Cl)ccc13 [AZD5991] + Cn1cnc2c(F)c(Nc3ccc(Br)cc3Cl)c(C(=O)NOCCO)cc21 [Selumetinib] (first compound max 1 µM, 7x7, partner max 3 µM)	0.989	0.496	0.714	0.301	0.738	0.411	0.365	0.193	0.563	0.238	1	0.189	0.956	0.336	0.169	0.246	0.237	0.604	0.543	0.513
